Assay results taken from patent publication US4684665A, “Sebosuppressive benzoic acid ester derivatives and cosmetic preparations containing them” (Henkel Kommanditgesellschaft auf Aktien, priority 1985, dated 1987).

Test system: accumulation of sebum
Assay: Anti-seborrheic activity on the shaved back of rats (browning, second evaluation method), % sebum reduction
Type: in vivo
Conditions: topical, once daily on 9 of 14 days, male Wistar rats, treated side vs untreated control group; for % Sebum reduction at the indicated concentration of active substance: 0.02%: 0.02 wt. % in alcohol; for % Sebum reduction at the indicated concentration of active substance: 0.05%: 0.05 wt. % in alcohol; for % Sebum reduction at the indicated concentration of active substance: 0.1%: 0.1 wt. % in alcohol
Excerpt: Male Wistar rats having a body weight ranging from 220 to 230 g at the beginning of the tests were used as the test animals. The accumulation of sebum in the test animals was examined by visually observing the degree of browning on the shaved back of the rats. Browning is caused by the accumulation of the brown skin surface lipid secreted by the rats. This test is based on the observation that young female rats, as well as male rats washed with a surfactant solution or with a lipid solvent or male rats systematically treated with estrogens show only a normal light, pink-colored skin after shaving, while at the same time, only comparatively very small quantities of lipids can be extracted from the shaved hairs.
In order to assess the anti-seborrheic effectiveness of the alkoxy and alkylbenzyloxy benzoic acid esters of the present invention, alcoholic solutions of test substances (B), (E), (F), (H) and (I) were each brushed onto one side of the back of 6 rats. The benzoic acid ester derivatives tested were applied in concentrations ranging from 0.02 to 0.1 wt. % in the alcohol.
The test period consisted of 14 days. The test substances were applied, once daily on 9 of the 14 days. A second group of 6 rats which were not treated was used as an additional control. At the end of the test period, the backs and sides of the animals were shaved and visually inspected. The examination was done independently by an evaluation panel composed of 6 people using double blind techniques.
A second criterion of evaluation is the intensity of the brown coloration in the shaved area. The following scale is used for this analysis:
According to this second method of evaluation, differences in the total points between the untreated control animals and the treated and untreated sides (ΔP) of the test animals respectively are calculated. Significant differences between the total point values assigned to the control animals and the values assigned to the treated side of the test animals again indicate the antiseborrheic effectiveness of a substance.
The results are presented in terms of sebum reduction percentage. The sebum reduction percentage is calculated from the point differences by determining the quotient of the difference in total points between the control group and the treated side of the test animals (ΔP) and the total number of points for the control group (Pk) and then expressing the value obtained in percent. [formula]

4-isotridecyloxy-benzoic acid methylester
% Sebum reduction at the indicated concentration of active substance: 0.02%: 83% | % Sebum reduction at the indicated concentration of active substance: 0.05%: 83%

CCCCCCCCCCCCOc1ccc(C(=O)OC)cc1 [4-dodecyloxy benzoic acid methyl ester, reference compound]
% Sebum reduction at the indicated concentration of active substance: 0.05%: 0% | % Sebum reduction at the indicated concentration of active substance: 0.1%: 18%

CCCCCCCCCCCCOc1ccc(C(=O)OCCCO)cc1 [4-dodecyloxy benzoic acid-3-hydroxypropyl ester, reference compound]
% Sebum reduction at the indicated concentration of active substance: 0.05%: 18% | % Sebum reduction at the indicated concentration of active substance: 0.1%: 33%

COC(=O)c1ccc(OCCC(C)CC(C)(C)C)cc1 (stereo not drawn) [Compound B, 4-(3,5,5-trimethylhexyloxy)-benzoic acid methylester]
% Sebum reduction at the indicated concentration of active substance: 0.05%: 36% | % Sebum reduction at the indicated concentration of active substance: 0.1%: 76%

COC(=O)c1ccc(OCc2ccc(C(C)(C)C)cc2)cc1 [Compound E, 4-(4-tert-butylbenzyloxy)-benzoic acid methylester]
% Sebum reduction at the indicated concentration of active substance: 0.02%: 10% | % Sebum reduction at the indicated concentration of active substance: 0.05%: 77%

CCCCCCCCCCCCOCCOc1ccc(C(=O)OC)cc1 [F, 4-(2-dodecyloxyethoxy)-benzoic acid methylester]
% Sebum reduction at the indicated concentration of active substance: 0.05%: 63%

CCCCCCCCCCCCOCCOc1ccc(C(=O)OCCCO)cc1 [H, 4-(2-dodecyloxy-ethoxy)-benzoic acid-3-hydroxypropyl ester]
% Sebum reduction at the indicated concentration of active substance: 0.05%: 71%
